≈ marks a conversion by molar mass, not a printed value. Like-named read-outs stand apart in the source and are kept apart here. Starred links: 1 amine or outer side, 2 acyl side, 3 side chain; linkers in the order of their positions; H or OH if unused. Positions of bridges follow the written chain, without caps; N, C: chain ends. Residues, ends and D or L forms follow the SMILES beside them. *: point of attachment. C20 diacid = O=C(O)CCCCCCCCCCCCCCCCCCC(=O)*; γGlu = O=C(O)[C@H](CCC(=O)[*:2])N[*:1]
What was measured:
[1] = Assay (III) ThT fibrillation assay for physical stability; type: physicochemical
Summary of the method: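 Freshly prepared formulations, pH-adjusted, with 1 μM ThT; four or eight replicates incubated at 37 °C under 960 rpm orbital shaking. Fluorescence (ex 444/em 485 nm) read every 20 min; […]. Peptide concentration measured by RP-HPLC before and after the run.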

[2] = Assay (IV) determination of solubility; type: physicochemical
Summary of the method: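 Solubility is measured across pH 3.0–8.0 by mixing a ~500 nmol/ml aqueous polypeptide stock 1:1 with 100 mM glycylglycine or bistrispropane buffers. Samples stand 18 hours at room temperature, then are centrifuged and the soluble concentration is determined by HPLC.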

[3] = target: T1, human calcitonin receptor (Homo sapiens, UniProt P30988); test: Assay (II)a functional CRE-luciferase assay, human calcitonin receptor; type: cell-based; conditions: Table 7; human calcitonin (CTa) receptor
T1 construct: expressed in transfected cells; host or cells: BHK570
T1 sequence (P30988 25-474): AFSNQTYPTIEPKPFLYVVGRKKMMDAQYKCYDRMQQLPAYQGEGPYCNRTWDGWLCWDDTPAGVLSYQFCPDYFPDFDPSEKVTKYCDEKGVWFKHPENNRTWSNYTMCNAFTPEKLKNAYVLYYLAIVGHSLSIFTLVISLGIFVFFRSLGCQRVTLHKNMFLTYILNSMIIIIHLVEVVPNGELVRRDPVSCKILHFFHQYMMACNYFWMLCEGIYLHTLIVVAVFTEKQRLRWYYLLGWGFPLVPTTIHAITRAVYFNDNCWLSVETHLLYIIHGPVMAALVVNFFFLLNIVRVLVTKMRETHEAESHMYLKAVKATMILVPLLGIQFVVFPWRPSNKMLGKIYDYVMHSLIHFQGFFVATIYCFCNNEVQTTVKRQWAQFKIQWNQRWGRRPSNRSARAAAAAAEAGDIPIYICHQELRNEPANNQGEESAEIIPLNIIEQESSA

[4] = target: T2, human amylin receptor (amylin 3(a) receptor: human calcitonin receptor + RAMP-3) (Homo sapiens, UniProt O60896+P30988); test: Assay (II)a functional CRE-luciferase assay, human amylin receptor; type: cell-based
T2 construct: expressed in transfected cells; host or cells: BHK570
T2 sequence (P30988 25-474): T1 sequence (P30988 25-474)
T2 sequence (O60896 24-148 partner): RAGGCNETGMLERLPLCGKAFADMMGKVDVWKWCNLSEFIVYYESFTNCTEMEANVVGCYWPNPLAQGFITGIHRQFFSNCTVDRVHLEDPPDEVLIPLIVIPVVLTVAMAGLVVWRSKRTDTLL

[5] = bistrispropane buffer, pH 6, pH 6.0, read-out: Solubility pH 6.0
[6] = bistrispropane buffer, pH 6.5, pH 6.5, read-out: Solubility pH 6.5
[7] = bistrispropane buffer, pH 7, pH 7.0, 18 hours at room temperature, Table 3, read-out: Solubility pH 7.0
[8] = bistrispropane buffer, pH 7, pH 7.0, read-out: Solubility pH 7.0
[9] = bistrispropane buffer, pH 7.5, pH 7.5, read-out: Solubility pH 7.5
[10] = bistrispropane buffer, pH 8, pH 8.0, read-out: Solubility pH 8.0
[11] = glycylglycine buffer, pH 3, pH 3.0, read-out: Solubility pH 3.0
[12] = glycylglycine buffer, pH 4, pH 4.0, 18 hours at room temperature, Table 2, read-out: Solubility pH 4.0
[13] = glycylglycine buffer, pH 4, pH 4.0, read-out: Solubility pH 4.0
[14] = glycylglycine buffer, pH 5, pH 5.0, read-out: Solubility pH 5.0
[15] = Table 2, BHK amylin 3(a)-receptor/CRE-luc cells

ThT pH 4.0 lag time (h) ([1]; ThT fibrillation assay) | solubility at 18 h [2, 5] | solubility at 18 h [2, 6] | solubility at 18 h [2, 7] | solubility at 18 h [2, 8] | solubility at 18 h [2, 9] | solubility at 18 h [2, 10] | solubility at 18 h [2, 11] | solubility at 18 h [2, 12] | solubility at 18 h [2, 13] | solubility at 18 h [2, 14] | EC50 [3] | EC50 [4, 15] | ThT pH 4.0 lag time ([1]; Table 8) | ThT pH 4.0 lag time ([1]; Table 9) | ThT pH 4.0 lag time ([1]; ThT fibrillation assay) | solubility at 18 h ([2]; bistrispropane buffer, pH 7, pH 7.0, Table 8, read-out: Solubility pH 7.0) | solubility at 18 h ([2]; bistrispropane buffer, pH 7, pH 7.0, Table 9, read-out: Solubility pH 7.0) | solubility at 18 h ([2]; bistrispropane buffer, pH 7.5, pH 7.5, Table 9, read-out: Solubility pH 7.5) | EC50 ([4]; Table 6, human amylin receptor) | Molecule
1.3 h | > 200 µM | > 200 µM | > 200 µM | > 200 µM | > 200 µM | > 200 µM | > 200 µM | > 200 µM | > 200 µM | > 200 µM | 0.034 nM | 0.039 nM | – | – | – | – | – | – | – | CC(C)C[C@H](NC(=O)[C@H](CCCNC(=N)N)NC(=O)[C@H](CCC(N)=O)NC(=O)[C@@H](NC(=O)[C@H](C)NC(=O)[C@@H]1CSSC[C@H](NC(=O)[C@H](CCCCN)NC(=O)CC[C@H](NC(=O)CCCCCCCCCCCCCCCCCCC(=O)O)C(=O)O)C(=O)N[C@@H](CC(N)=O)C(=O)N[C@@H]([C@@H](C)O)C(=O)N[C@@H](C)C(=O)N[C@@H]([C@@H](C)O)C(=O)N1)[C@@H](C)O)C(=O)N[C@@H](C)C(=O)N[C@@H](CCC(=O)O)C(=O)N[C@@H](Cc1ccccc1)C(=O)N[C@@H](CC(C)C)C(=O)N[C@H](C(=O)N[C@@H](CCCNC(=N)N)C(=O)N[C@@H](CO)C(=O)N[C@@H](CO)C(=O)N[C@@H](CCC(N)=O)C(=O)N[C@@H](CC(N)=O)C(=O)N[C@@H](Cc1ccccc1)C(=O)NCC(=O)N[C@@H](C)C(=O)N1CCC[C@H]1C(=O)N[C@@H](CC(C)C)C(=O)N[C@@H](CO)C(=O)N[C@@H](CO)C(=O)N[C@H](C(=O)N[C@@H](CC(N)=O)C(=O)N[C@H](C(=O)NCC(=O)N[C@@H](CO)C(=O)N[C@@H](CC(N)=O)C(=O)N[C@H](C(=O)N1CCC[C@H]1C(N)=O)[C@@H](C)O)C(C)C)[C@@H](C)O)C(C)C [Example 166, N-alpha-[(S)-4-Carboxy-4-(19-carboxynonadecanoylamino)butyryl]-[Glu14,Arg18,Gln21,Ala25,Pro26,Ser28,Ser29,Pro37]-pramlintide] ({C20 diacid-γGlu}-KCNTATCATQRLAEFLVRSSQNFGAPLSSTNVGSNTP-NH2; disulfide 2-7 (inferred); C-terminus assumed)
>45 h | > 200 µM | > 200 µM | > 200 µM | > 200 µM | > 200 µM | 188 µM (≈ 808 µg/mL) | > 200 µM | > 200 µM | > 200 µM | 186 µM (≈ 800 µg/mL) | 0.076 nM | 0.09 nM | >45 h | >45 h | >45 h | > 200 µM | > 200 µM | > 200 µM | – | CC[C@H](C)[C@H](NC(=O)[C@@H]1CCCN1C(=O)CNC(=O)[C@H](Cc1ccccc1)NC(=O)[C@H](CO)NC(=O)[C@H](CO)NC(=O)[C@H](CO)NC(=O)[C@H](CO)NC(=O)[C@H](CCCNC(=N)N)NC(=O)[C@@H](NC(=O)[C@H](CC(C)C)NC(=O)[C@H](Cc1ccccc1)NC(=O)[C@H](CCC(=O)O)NC(=O)[C@H](C)NC(=O)[C@H](CC(C)C)NC(=O)[C@H](CCCNC(=N)N)NC(=O)[C@H](CCC(N)=O)NC(=O)[C@@H](NC(=O)[C@H](C)NC(=O)[C@@H]1CSSC[C@H](NC(=O)[C@H](CCCCN)NC(=O)CC[C@H](NC(=O)CCCCCCCCCCCCCCCCCCC(=O)O)C(=O)O)C(=O)N[C@@H](CC(N)=O)C(=O)N[C@@H]([C@@H](C)O)C(=O)N[C@@H](C)C(=O)N[C@@H]([C@@H](C)O)C(=O)N1)[C@@H](C)O)C(C)C)C(=O)N[C@@H](CC(C)C)C(=O)N[C@@H](CO)C(=O)N[C@@H](CO)C(=O)N[C@H](C(=O)N[C@@H](CC(=O)O)C(=O)N[C@H](C(=O)NCC(=O)N[C@@H](CO)C(=O)N[C@@H](CC(=O)O)C(=O)N[C@H](C(=O)N1CCC[C@H]1C(N)=O)[C@@H](C)O)C(C)C)[C@@H](C)O [Example 170, N-alpha-[(S)-4-Carboxy-4-(19-carboxynonadecanoylamino)butyryl]-[Glu14,Arg18,Ser21,Ser22,Ser28,Ser29,Asp31,Asp35,Pro37]-pramlintide] ({C20 diacid-γGlu}-KCNTATCATQRLAEFLVRSSSSFGPILSSTDVGSDTP-NH2; disulfide 2-7 (inferred))
0 h | 6 µM | 4 µM | – | 1 µM | 25 µM | 26 µM | > 200 µM | – | 84 µM | 52 µM | 0.432 nM | – | – | – | – | – | – | – | 0.253 nM | {C20 diacid-γGlu}-SSGSSGCNTATCATQRLAEFLHHSSNNFGPILPPTNVGSNTY-NH2 (disulfide 7-12 (inferred)) [Example 39, N-alpha-[(S)-4-Carboxy-4-(19-carboxynonadecanoylamino)butyryl]-Ser-Ser-Gly-Ser-Ser-[Gly1,Glu14,His17]-pramlintide]
10.6 h | 21 µM | 20 µM | – | 52 µM | > 200 µM | > 200 µM | > 200 µM | > 200 µM | > 200 µM | > 200 µM | 0.669 nM | 0.305 nM | – | – | – | – | – | – | – | {C20 diacid-γGlu}-SSGSSGHCNTATCATQRLAEFLHHSSNNFGPILPPTNVGSNTY-NH2 (disulfide 8-13 (inferred); C-terminus assumed) [Example 44, N-alpha-[(S)-4-Carboxy-4-(19-carboxynonadecanoylamino)butyryl]-Ser-Ser-Gly-Ser-Ser-Gly-[His1,Glu14,His17]-pramlintide]

Reference: patent publication US8722849B2, “Polypeptides” (Novo Nordisk A/S, priority 2011, dated 2014)
